Earlier results, collected in PubChem BioAssay AID1259409 (Chemical Carcinogenesis Research Information System (CCRIS), 2018).

System: rodent chemically induced tumor inhibition, incidence and multiplicity
Assay: CCRIS tumor inhibitor studies
Conditions: Dose [Inhibitor]: 0

For CC(C)=CCC/C(C)=C/C=C/C(C)=C/C=C/C(C)=C/C=C/C=C(C)/C=C/C=C(C)/C=C/C=C(\C)CCC=C(C)C, which “tumour outcome (control, treated, inhibition, significance)” value (Carcinogen: 7,12-DIMETHYLBENZ[A]ANTHRACENE, 57-97-6, 2.5 MG/KG ON DAYS ALTERNATE TO CARCINOGEN APPLICATION FOR STUDY DURATION (STUDY DURATION: 14 WK), Route [Inhibitor]: GAVAGE, Species: HAMSTER, Strain/Sex: SYRIAN/MALE, Target Tissue: Type of Lesion: BUCCAL POUCH: SQUAMOUS CELL CARCINOMA, Dose [Carcinogen]: 0.5% IN LIQUID PARAFFIN ON RIGHT BUCCAL POUCH 3X/WK FOR 14 WK, Promoter: NONE USED) is on record?
Its value is 6/6 (100%), 0/6 (0%), 100%, not calculated.

And the “tumour outcome (control, treated, inhibition, significance)” value (Carcinogen: DIETHYLNITROSAMINE: 55-18-5, N-METHYL-N-NITROSOUREA, 684-93-5, 1,2-DIMETHYLHYDRAZINE, 540-73-8, Carcinogen: DIETHYLNITROSAMINE: 55-18-5, N-METHYL-N-NITROSOUREA, 684-93-5, 1,2-DIMETHYLHYDRAZINE, 540-73-8, 25 PPM IN DIET FOR 21 WK BEGINNING 2 WK POST CARCINOGEN TREATMENT (STUDY DURATION: 213 D), Route [Inhibitor]: ORAL, Species: MOUSE, Strain/Sex: B6C3F1/FEMALE, Target Tissue: Type of Lesion: LUNG: ADENOMA, Dose [Carcinogen]: 10 MG/KG BW DEN TWICE ON DAYS 1 AND 21, 120 PPM MNU IN DRINKING WATER DURING WKS 4-9, 20 MG/KG BW DMH 2/WK DURING WKS 4-, Dose [Carcinogen]: 10 MG/KG BW DEN TWICE ON DAYS 1 AND 21, 120 PPM MNU IN DRINKING WATER DURING WKS 4-9, 20 MG/KG BW DMH 2/WK DURING WKS 4-)?
The value was 6/16 (38%), 3/16 (19%), 50%, not significant.

And the outcome (Carcinogen: DIETHYLNITROSAMINE: 55-18-5, N-METHYL-N-NITROSOUREA, 684-93-5, 1,2-DIMETHYLHYDRAZINE, 540-73-8, Carcinogen: DIETHYLNITROSAMINE: 55-18-5, N-METHYL-N-NITROSOUREA, 684-93-5, 1,2-DIMETHYLHYDRAZINE, 540-73-8, 25 PPM IN DIET FOR 21 WK BEGINNING 2 WK POST CARCINOGEN TREATMENT (STUDY DURATION: 213 D), Route [Inhibitor]: ORAL, Species: MOUSE, Strain/Sex: B6C3F1/FEMALE, Target Tissue: Type of Lesion: LUNG: CARCINOMA, Dose [Carcinogen]: 10 MG/KG BW DEN TWICE ON DAYS 1 AND 21, 120 PPM MNU IN DRINKING WATER DURING WKS 4-9, 20 MG/KG BW DMH 2/WK DURING WKS 4-, Dose [Carcinogen]: 10 MG/KG BW DEN TWICE ON DAYS 1 AND 21, 120 PPM MNU IN DRINKING WATER DURING WKS 4-9, 20 MG/KG BW DMH 2/WK DURING WKS 4-)?
Its outcome is 0/16 (0%), 0/16 (0%), 0%, not significant.

And the “tumour outcome (control, treated, inhibition, significance)” value (Carcinogen: DIETHYLNITROSAMINE: 55-18-5, N-METHYL-N-NITROSOUREA, 684-93-5, 1,2-DIMETHYLHYDRAZINE, 540-73-8, Carcinogen: DIETHYLNITROSAMINE: 55-18-5, N-METHYL-N-NITROSOUREA, 684-93-5, 1,2-DIMETHYLHYDRAZINE, 540-73-8, 25 PPM IN DIET FOR 21 WK BEGINNING 2 WK POST CARCINOGEN TREATMENT (STUDY DURATION: 213 D), Route [Inhibitor]: ORAL, Species: MOUSE, Strain/Sex: B6C3F1/MALE, Target Tissue: Type of Lesion: LUNG: ADENOMA, Dose [Carcinogen]: 10 MG/KG BW DEN TWICE ON DAYS 1 AND 21, 120 PPM MNU IN DRINKING WATER DURING WKS 4-9, 20 MG/KG BW DMH 2/WK DURING WKS 4-, Dose [Carcinogen]: 10 MG/KG BW DEN TWICE ON DAYS 1 AND 21, 120 PPM MNU IN DRINKING WATER DURING WKS 4-9, 20 MG/KG BW DMH 2/WK DURING WKS 4-)?
The value was 11/16 (69%), 11/15 (69%), 0%, not significant.

What about the “tumour outcome (control, treated, inhibition, significance)” value (Carcinogen: DIETHYLNITROSAMINE: 55-18-5, N-METHYL-N-NITROSOUREA, 684-93-5, 1,2-DIMETHYLHYDRAZINE, 540-73-8, Carcinogen: DIETHYLNITROSAMINE: 55-18-5, N-METHYL-N-NITROSOUREA, 684-93-5, 1,2-DIMETHYLHYDRAZINE, 540-73-8, 25 PPM IN DIET FOR 21 WK BEGINNING 2 WK POST CARCINOGEN TREATMENT (STUDY DURATION: 213 D), Route [Inhibitor]: ORAL, Species: MOUSE, Strain/Sex: B6C3F1/MALE, Target Tissue: Type of Lesion: LUNG: CARCINOMA, Dose [Carcinogen]: 10 MG/KG BW DEN TWICE ON DAYS 1 AND 21, 120 PPM MNU IN DRINKING WATER DURING WKS 4-9, 20 MG/KG BW DMH 2/WK DURING WKS 4-, Dose [Carcinogen]: 10 MG/KG BW DEN TWICE ON DAYS 1 AND 21, 120 PPM MNU IN DRINKING WATER DURING WKS 4-9, 20 MG/KG BW DMH 2/WK DURING WKS 4-) of the same compound?
Its value is 1/16 (6%), 2/16 (12%), -98%, not significant.

And the “tumour outcome (control, treated, inhibition, significance)” value (Carcinogen: DIETHYLNITROSAMINE: 55-18-5, N-METHYL-N-NITROSOUREA, 684-93-5, 1,2-DIMETHYLHYDRAZINE, 540-73-8, Carcinogen: DIETHYLNITROSAMINE: 55-18-5, N-METHYL-N-NITROSOUREA, 684-93-5, 1,2-DIMETHYLHYDRAZINE, 540-73-8, 50 PPM IN DIET FOR 21 WK BEGINNING 2 WK POST CARCINOGEN TREATMENT (STUDY DURATION: 213 D), Route [Inhibitor]: ORAL, Species: MOUSE, Strain/Sex: B6C3F1/FEMALE, Target Tissue: Type of Lesion: LUNG: ADENOMA, Dose [Carcinogen]: 10 MG/KG BW DEN TWICE ON DAYS 1 AND 21, 120 PPM MNU IN DRINKING WATER DURING WKS 4-9, 20 MG/KG BW DMH 2/WK DURING WKS 4-, Dose [Carcinogen]: 10 MG/KG BW DEN TWICE ON DAYS 1 AND 21, 120 PPM MNU IN DRINKING WATER DURING WKS 4-9, 20 MG/KG BW DMH 2/WK DURING WKS 4-)?
Its value is 6/16 (37%), 8/15 (53%), -42%, not significant.

What about the outcome (Carcinogen: DIETHYLNITROSAMINE: 55-18-5, N-METHYL-N-NITROSOUREA, 684-93-5, 1,2-DIMETHYLHYDRAZINE, 540-73-8, Carcinogen: DIETHYLNITROSAMINE: 55-18-5, N-METHYL-N-NITROSOUREA, 684-93-5, 1,2-DIMETHYLHYDRAZINE, 540-73-8, 50 PPM IN DIET FOR 21 WK BEGINNING 2 WK POST CARCINOGEN TREATMENT (STUDY DURATION: 213 D), Route [Inhibitor]: ORAL, Species: MOUSE, Strain/Sex: B6C3F1/FEMALE, Target Tissue: Type of Lesion: LUNG: CARCINOMA, Dose [Carcinogen]: 10 MG/KG BW DEN TWICE ON DAYS 1 AND 21, 120 PPM MNU IN DRINKING WATER DURING WKS 4-9, 20 MG/KG BW DMH 2/WK DURING WKS 4-, Dose [Carcinogen]: 10 MG/KG BW DEN TWICE ON DAYS 1 AND 21, 120 PPM MNU IN DRINKING WATER DURING WKS 4-9, 20 MG/KG BW DMH 2/WK DURING WKS 4-) of the same compound?
Its outcome is 0/16 (0%), 0/15 (0%), 0%, not significant.

What about the “tumour outcome (control, treated, inhibition, significance)” value (Carcinogen: DIETHYLNITROSAMINE: 55-18-5, N-METHYL-N-NITROSOUREA, 684-93-5, 1,2-DIMETHYLHYDRAZINE, 540-73-8, Carcinogen: DIETHYLNITROSAMINE: 55-18-5, N-METHYL-N-NITROSOUREA, 684-93-5, 1,2-DIMETHYLHYDRAZINE, 540-73-8, 50 PPM IN DIET FOR 21 WK BEGINNING 2 WK POST CARCINOGEN TREATMENT (STUDY DURATION: 213 D), Route [Inhibitor]: ORAL, Species: MOUSE, Strain/Sex: B6C3F1/MALE, Target Tissue: Type of Lesion: LUNG: ADENOMA, Dose [Carcinogen]: 10 MG/KG BW DEN TWICE ON DAYS 1 AND 21, 120 PPM MNU IN DRINKING WATER DURING WKS 4-9, 20 MG/KG BW DMH 2/WK DURING WKS 4-, Dose [Carcinogen]: 10 MG/KG BW DEN TWICE ON DAYS 1 AND 21, 120 PPM MNU IN DRINKING WATER DURING WKS 4-9, 20 MG/KG BW DMH 2/WK DURING WKS 4-) of the same compound?
The value was 11/16 (69%), 3/16 (19%), 73%, not significant.

What about the “tumour outcome (control, treated, inhibition, significance)” value (Carcinogen: DIETHYLNITROSAMINE: 55-18-5, N-METHYL-N-NITROSOUREA, 684-93-5, 1,2-DIMETHYLHYDRAZINE, 540-73-8, Carcinogen: DIETHYLNITROSAMINE: 55-18-5, N-METHYL-N-NITROSOUREA, 684-93-5, 1,2-DIMETHYLHYDRAZINE, 540-73-8, 50 PPM IN DIET FOR 21 WK BEGINNING 2 WK POST CARCINOGEN TREATMENT (STUDY DURATION: 213 D), Route [Inhibitor]: ORAL, Species: MOUSE, Strain/Sex: B6C3F1/MALE, Target Tissue: Type of Lesion: LUNG: CARCINOMA, Dose [Carcinogen]: 10 MG/KG BW DEN TWICE ON DAYS 1 AND 21, 120 PPM MNU IN DRINKING WATER DURING WKS 4-9, 20 MG/KG BW DMH 2/WK DURING WKS 4-, Dose [Carcinogen]: 10 MG/KG BW DEN TWICE ON DAYS 1 AND 21, 120 PPM MNU IN DRINKING WATER DURING WKS 4-9, 20 MG/KG BW DMH 2/WK DURING WKS 4-) of the same compound?
The value was 1/16 (6%), 0/16 (0%), 100%, not significant.

What about the “tumour outcome (control, treated, inhibition, significance)” value (Carcinogen: DIETHYLNITROSAMINE, 55-18-5, N-METHYL-N-NITROSOUREA, 684-93-5, 1,2-DIMETHYLHYDRAZINE, 306-37-6, Carcinogen: DIETHYLNITROSAMINE, 55-18-5, N-METHYL-N-NITROSOUREA, 684-93-5, 1,2-DIMETHYLHYDRAZINE, 306-37-6, 25 PPM IN DRINKING WATER FOR 21 WK BEGINNING 2 WK POST CARCINOGEN TREATMENT (STUDY DURATION: 32 WK), Route [Inhibitor]: ORAL, Species: MOUSE, Strain/Sex: B6C3F1/FEMALE, Target Tissue: Type of Lesion: LUNG: ADENOMA, Dose [Carcinogen]: 10 MG/KG BW DEN ON DAYS 11 AND 32 OF AGE, 120 PPM MNU IN DRINKING WATER FROM WKS 4 TO 9, 20 MG/KG BW DMH 2/WK FOR 5 WK, Promoter: NONE USED) of the same compound?
Its value is 6/16 (38%), 3/16 (19%), 50%, not significant.
